Results: ChEMBL document CHEMBL4152195, “Lipid reducing activity and toxicity profiles of a library of polyphenol derivatives” (Eur J Med Chem, 2018)
The source made the active and inactive calls. The calls are words filed in the database; no cut-off is given here.

Species on record: Danio rerio
Test: Toxicity in zebra fish larvae at 5 uM after 48 hrs
Assay type: organism-based
Details: zebrafish, in vivo

Question: Which Activity does the source give for `COc1cc2oc3ccccc3c(=O)c2cc1OC` here?
Answer: 0 to 25%

Question: Which Activity does the source give for `CCCOc1ccc(NCC(C)C)c2c(=O)c3ccccc3sc12` here?
Answer: 0 to 25%

Question: For `COc1ccc2oc3ccccc3c(=O)c2c1OC`, which Activity is on record?
Answer: 0 to 25%

Question: Which Activity does the source give for `COc1c2c(cc3c(=O)c4cc(Cl)ccc4oc13)OC(C)(C)CC2` here?
Answer: 0 to 25%

Question: `COc1c2c(cc3c(=O)c4cc(C)ccc4oc13)CCC(C)(C)O2` was tested. Which Activity did it give?
Answer: 0 to 25%

Question: For `COC(=O)COc1ccc2c(=O)c3ccc(OCC(=O)OC)cc3oc2c1`, which Activity is on record?
Answer: 0 to 25%

Question: Which Activity does the source give for `O=c1c2ccccc2oc2ccc(O)c(O)c12` here?
Answer: 0 to 25%

Question: How did the Activity turn out when `CC1(C)C=Cc2cc(O)c3c(=O)c4ccccc4oc3c2O1` was run?
Answer: 0 to 25%

Question: Which Activity does the source give for `O=c1c2cc(O)ccc2oc2cccc(O)c12` here?
Answer: 0 to 25%

Question: `O=c1c2ccccc2oc2ccc(O)cc12` was tested. Which Activity did it give?
Answer: 0 to 25%

Species on record: Danio rerio
Test: Lipid lowering activity in zebrafish embryos by Nile red fat metabolism assay
Assay type: functional, organism-based
Details: not given

Question: With `COc1cc2oc3ccccc3c(=O)c2cc1OC` as the compound, how does the EC50 read?
Answer: 280 nM

Question: For `CCCOc1ccc(NCC(C)C)c2c(=O)c3ccccc3sc12`, which EC50 is on record?
Answer: 70 nM

Question: `COc1ccc2oc3ccccc3c(=O)c2c1OC` was tested. Which EC50 did it give?
Answer: 620 nM

Question: For `COc1c2c(cc3c(=O)c4cc(Cl)ccc4oc13)OC(C)(C)CC2`, which EC50 is on record?
Answer: 860 nM

Question: For `COc1c2c(cc3c(=O)c4cc(C)ccc4oc13)CCC(C)(C)O2`, which EC50 is on record?
Answer: 420 nM

Question: Which EC50 does the source give for `COC(=O)COc1ccc2c(=O)c3ccc(OCC(=O)OC)cc3oc2c1` here?
Answer: 1670 nM

Question: With `O=c1c2ccccc2oc2ccc(O)c(O)c12` as the compound, how does the EC50 read?
Answer: 130 nM

Question: How did the EC50 turn out when `CC1(C)C=Cc2cc(O)c3c(=O)c4ccccc4oc3c2O1` was run?
Answer: 290 nM

Question: Which EC50 does the source give for `O=c1c2ccccc2oc2ccc(O)cc12` here?
Answer: 760 nM

Question: `Oc1ccc(/C=C/c2cc(O)cc(O)c2)cc1` [RESVERATROL] was tested. Which EC50 did it give?
Answer: 600 nM

These compounds were tested on 3T3-L1 (assay: Cytotoxicity against mouse 3T3L1 cells at 50 uM after 48 hrs by sulforhodamine B assay). Details: 3t3-l1, 48 h.
Assay type: cell-based

Question: With `COc1cc2oc3ccccc3c(=O)c2cc1OC` as the compound, how does the Activity read?
Answer: 0 to 25%

Question: Which Activity does the source give for `CCCOc1ccc(NCC(C)C)c2c(=O)c3ccccc3sc12` here?
Answer: 0 to 25%

Question: With `COc1ccc2oc3ccccc3c(=O)c2c1OC` as the compound, how does the Activity read?
Answer: 0 to 25%

Question: With `COc1c2c(cc3c(=O)c4cc(Cl)ccc4oc13)OC(C)(C)CC2` as the compound, how does the Activity read?
Answer: 0 to 25%

Question: Which Activity does the source give for `COc1c2c(cc3c(=O)c4cc(C)ccc4oc13)CCC(C)(C)O2` here?
Answer: 0 to 25%

Question: With `COC(=O)COc1ccc2c(=O)c3ccc(OCC(=O)OC)cc3oc2c1` as the compound, how does the Activity read?
Answer: 0 to 25%

Question: How did the Activity turn out when `O=c1c2ccccc2oc2ccc(O)c(O)c12` was run?
Answer: 0 to 25%

Question: How did the Activity turn out when `CC1(C)C=Cc2cc(O)c3c(=O)c4ccccc4oc3c2O1` was run?
Answer: 0 to 25%

Question: How did the Activity turn out when `O=c1c2cc(O)ccc2oc2cccc(O)c12` was run?
Answer: 0 to 25%

Question: How did the Activity turn out when `O=c1c2ccccc2oc2ccc(O)cc12` was run?
Answer: 0 to 25%

These compounds were tested on 3T3-L1 (assay: Cytotoxicity against mouse 3T3L1 cells at 50 uM after 24 hrs by sulforhodamine B assay). Details: 3t3-l1, 24 h.
Assay type: cell-based

Question: How did the Activity turn out when `COc1cc2oc3ccccc3c(=O)c2cc1OC` was run?
Answer: 0 to 25%

Question: How did the Activity turn out when `CCCOc1ccc(NCC(C)C)c2c(=O)c3ccccc3sc12` was run?
Answer: 0 to 25%

Question: Which Activity does the source give for `COc1ccc2oc3ccccc3c(=O)c2c1OC` here?
Answer: 0 to 25%

Question: Which Activity does the source give for `COc1c2c(cc3c(=O)c4cc(Cl)ccc4oc13)OC(C)(C)CC2` here?
Answer: 0 to 25%

Question: For `COc1c2c(cc3c(=O)c4cc(C)ccc4oc13)CCC(C)(C)O2`, which Activity is on record?
Answer: 0 to 50%

Question: How did the Activity turn out when `COC(=O)COc1ccc2c(=O)c3ccc(OCC(=O)OC)cc3oc2c1` was run?
Answer: 0 to 25%

Question: For `O=c1c2ccccc2oc2ccc(O)c(O)c12`, which Activity is on record?
Answer: 0 to 25%

Question: `CC1(C)C=Cc2cc(O)c3c(=O)c4ccccc4oc3c2O1` was tested. Which Activity did it give?
Answer: 0 to 25%

Question: Which Activity does the source give for `O=c1c2cc(O)ccc2oc2cccc(O)c12` here?
Answer: 0 to 25%

Question: With `O=c1c2ccccc2oc2ccc(O)cc12` as the compound, how does the Activity read?
Answer: 0 to 25%

Species on record: Danio rerio
Test: Lipid lowering activity in zebrafish embryos 50 uM by Nile red fat metabolism assay
Assay type: functional, organism-based
Details: not given

Question: With `Oc1ccc(/C=C/c2cc(O)cc(O)c2)cc1` [RESVERATROL] as the compound, how does the Activity read?
Answer: Active

Species on record: Danio rerio
Test: Toxicity in zebra fish larvae assessed as induction of malformation at 50 uM after 24 to 48 hrs
Assay type: organism-based
Details: zebrafish, in vivo

Question: How did the Activity turn out when `O=c1c2cc(O)ccc2oc2cccc(O)c12` was run?
Answer: Toxic

Species on record: Danio rerio
Test: Lipid lowering activity in zebrafish embryos at 5 uM by Nile red fat metabolism assay
Assay type: functional, organism-based
Details: not given

Question: How did the Activity turn out when `COc1cc2oc3ccccc3c(=O)c2cc1OC` was run?
Answer: Active

Question: How did the Activity turn out when `CCCOc1ccc(NCC(C)C)c2c(=O)c3ccccc3sc12` was run?
Answer: Active

Question: With `COc1ccc2oc3ccccc3c(=O)c2c1OC` as the compound, how does the Activity read?
Answer: Active

Question: `COc1c2c(cc3c(=O)c4cc(Cl)ccc4oc13)OC(C)(C)CC2` was tested. Which Activity did it give?
Answer: Active

Question: How did the Activity turn out when `COc1c2c(cc3c(=O)c4cc(C)ccc4oc13)CCC(C)(C)O2` was run?
Answer: Active

Question: With `COC(=O)COc1ccc2c(=O)c3ccc(OCC(=O)OC)cc3oc2c1` as the compound, how does the Activity read?
Answer: Active

Question: With `O=c1c2ccccc2oc2ccc(O)c(O)c12` as the compound, how does the Activity read?
Answer: Active

Question: `CC1(C)C=Cc2cc(O)c3c(=O)c4ccccc4oc3c2O1` was tested. Which Activity did it give?
Answer: Active

Question: `O=c1c2ccccc2oc2ccc(O)cc12` was tested. Which Activity did it give?
Answer: Active

Question: With `Oc1ccc(/C=C/c2cc(O)cc(O)c2)cc1` [RESVERATROL] as the compound, how does the Activity read?
Answer: Active

Species on record: Danio rerio
Test: Downregulation of fasn mRNA expression in zebra fish larvae at lipid lowering activity EC50 after 48 hrs by RT-PCR analysis
Assay type: functional
Details: not given

Question: With `COc1cc2oc3ccccc3c(=O)c2cc1OC` as the compound, how does the “fold change (FC)” value read?
Answer: 2

Question: `CCCOc1ccc(NCC(C)C)c2c(=O)c3ccccc3sc12` was tested. Which Activity did it give?
Answer: inactive

Question: With `O=c1c2ccccc2oc2ccc(O)c(O)c12` as the compound, how does the Activity read?
Answer: inactive
